Reference: patent publication US12559499B2, “Uses of compounds having anti-HSV-1 activity” (Arizona Board of Regents on Behalf of the University of …, priority 2019, dated 2026)
Like-named read-outs stand apart in the source and are kept apart here.

How the values were obtained:
wild-type HSV-1 strain F = test: Anti-HSV-1 plaque reduction assay (PRA) on supernatants of infected U2OS cells; format: cell-based; settings: for IC50: MOI 1, supernatants at 24 h.p.i., plaque reduction assay, read-out: IC50 (concentration able to perform 50% inhibition of HSV-1 production)
Description: (§1) Quindoline-derived compounds were first screened for their anti-herpetic activity. Increasing concentrations of compounds (from 25 to 400 nM) were added to U2OS cells infected with wild-type HSV-1 strain F at a MOI of 1. Supernatants were collected at 24 hours post infection (h.p.i.) and the reduction of viral particles production was determined by plaque reduction assay (PRA) (see, Artusi S., et al., Antiviral Res. 2015; 118:123-31; Callegaro S., et al., Sci. Rep. 2017; 7: 2341). Antiviral activities were determined as the concentration of compounds able to perform 50% inhibition of HSV-1 production (IC50). Cytotoxicity effects were evaluated in parallel by MTT assay and reported as the concentration of compounds able to kill 50% of the cells (CC50). The selectivity index (SI) was calculated as the ratio of CC50 to IC50.

[1] = Cytotoxicity by MTT assay; format: cell-based, Human; settings: human, U2OS cells (osteosarcoma cell line), read-out: CC50 (concentration able to kill 50% of the cells)
Description: as §1, with “Increasing concentrations of compounds (from 25 to 400 nM) were added to U2OS cells infected with wild-type HSV-1 strain F at a MOI of 1.” left out

HSV-1 = test: Time of addition (TOA) assay in HSV-1-infected U2OS cells; format: cell-based; settings: non-toxic concentration, added every 2 hours up to 10 h.p.i., supernatants at 30 h.p.i. titrated by PRA
Description: To assess the main and temporally last viral step targeted by the most promising compound, GSA-0932, a time of addition (TOA) assay was performed (see, FIG. 2) (see, Artusi S., et al., Antiviral Res. 2015; 118:123-31; Callegaro S., et al., Sci. Rep. 2017; 7: 2341; Daelemans D., et al., Nat. Protoc. 2011; 6(6):925-33). This experiment permits determination of how long the addition of a compound can be postponed before it loses its antiviral activity. Since the HSV-1 replication cycle proceeds in a well-established chronological order, it is possible to investigate the last viral process targeted by a compound comparing its action to that of a reference drug in the time frame of replication events. The well characterized anti-HSV drug Acyclovir (ACV) was considered as reference (see, Artusi S., et al., Antiviral Res. 2015; 118:123-31; Callegaro S., et al., Sci. Rep. 2017; 7: 2341). HSV-1-infected U2OS cells were treated with a non-toxic concentration of GSA-0932 at different times post-infection (corresponding to different viral cycle steps): every 2 hours up to 10 h.p.i. Supernatants were collected at 30 h.p.i. and then titrated by PRA.

[2] = system: HSV-1 un3 G-quadruplex folding sequence; test: Circular dichroism (CD) melting of G-quadruplex, un3; format: binding
Description: (§2) Circular dichroism (CD) was conducted to evaluate the binding and stabilizing activity of GSA-0932 to HSV-1 G-quadruplex structures (G4s). Three sequences were considered: two sequences forming a four-stacked-G-quartet structure (un2 and gp054a) and one forming a three-G-quartet G4 (un3) (see, Artusi S., et al., Antiviral Res. 2015; 118:123-31). HSV-1 G4s were analyzed at a final concentration of 4 μM in the presence of the physiological K^+ concentration (100 mM) or in the presence of lower K^+ concentration (2.5 mM) in order to better appreciate the effect of the compound in the case of extremely stable G4 structures (e.g. un2 sequence). Oligonucleotides were also analyzed in the absence or presence of 4-folds excess of GSA-0932.

[3] = system: HSV-1 un2 G-quadruplex folding sequence; test: Circular dichroism (CD) melting of G-quadruplex, un2; format: binding; settings: un2 4 μM + 16 μM GSA-0932, K+ 2.5 mM
Description: as §2

[4] = system: HSV-1 gp054a G-quadruplex folding sequence; test: Circular dichroism (CD) melting of G-quadruplex, gp054a; format: binding; settings: for Tm, first value: first of two printed Tm; for Tm, second value: second of two printed Tm
Description: as §2

[5] = system: un2, un3 and gp054a G-quadruplex forming templates; test: Taq polymerase stop assay, G-quadruplex templates; format: biochemical, HSV-1; settings: 2-8 μM compound; un3 at 50 mM K+, un2 and gp054a at 0.5 mM K+
Description: (§3) FIG. 3: Taq polymerase stop assay. A) Image of a typical Taq polymerase stop assay. The un2, un3, gp054a template were amplified by Taq polymerase in the absence (lanes 5-9-13) and in the presence of K^+, combined with increasing amounts (2-8 μM) of GSA-0932 (lanes 7-8, 11-12, 15-16) or same amount of DMSO as that in the ligand (lanes 6-10-14). Un3 was analyzed at 50 mM of K^+, while the other sequences were investigated at 0.5 mM of K^+. A template (non-G4 ctrl) unable to fold into G4 was also used as control (lanes 1-4). P stands for unreacted labeled primer, FL stands for full length product. G4-specific Taq polymerase stop sites are highlighted by vertical bars. Quantification of stop bands corresponding to G4 and of the full length amplification product (FL) is shown.
To confirm the increased stability of the viral G-quadruplexes in the presence of GSA-0932, a Taq polymerase stop assay was next set up (FIG. 3). Extended un2, un3 and gp054a forming sequences were used, containing additional flanking bases at the 3′-end: a primer annealing sequence and a 5-T linker region to separate the annealing sequence from the first G of the G-tract.
(§4) Un3 was analyzed at 50 mM of K^+, while the FIG. 3 other sequences were investigated at 0.5 mM of K^+ due to their higher stability.

[6] = system: control DNA template unable to fold into G-quadruplex; test: Taq polymerase stop assay, non-G4 control template; format: biochemical; settings: non-G4 ctrl template
Description: as §3, §4

[7] = system: un3 G-quadruplex-folded oligonucleotide; test: Competition ESI-MS binding, un3; parameters: species or system HSV-1; settings: competing G4s un3/hTel, oligonucleotides 4 μM, DNA:compound 1:1.5, overnight 4° C.
Description: (§5) Competition electrospray ionization mass spectrometry (ESI-MS) experiments were performed in order to check the binding selectivity of GSA-0932 toward different G-quadruplex forming sequences (see, Callegaro S., et al., Sci. Rep. 2017; 7: 2341; Yuan G., et al., Mass Spectrom. Rev. 2011, 30, 1121-114210.1002/mas.20315). The viral un3, un2 and gp054a G4s were analyzed against the selected competitor hTel, the G-quadruplex-forming sequence of the human telomeric repeat, the most abundant cellular G-quadruplex. The oligonucleotides were diluted to final concentration of 4 μM and incubated with the compound at ratio DNA:compound 1:1.5 overnight at 4° C. Samples were analyzed by a Xevo G2-XS QT of mass spectrometer (Waters, Manchester, UK). Binding affinities were calculated for each experiment using the peak intensity for each species measured by MassLynx V4.1.

[8] = system: un2 G-quadruplex-folded oligonucleotide; test: Competition ESI-MS binding, un2; parameters: species or system HSV-1; settings: competing G4s un2/hTel, oligonucleotides 4 μM, DNA:compound 1:1.5, overnight 4° C.
Description: as §5

[9] = system: gp054a G-quadruplex-folded oligonucleotide; test: Competition ESI-MS binding, gp054a; parameters: species or system HSV-1; settings: competing G4s gp054a/hTel, oligonucleotides 4 μM, DNA:compound 1:1.5, overnight 4° C.
Description: as §5

[10] = system: hTel, the G-quadruplex-forming sequence of the human telomeric repeat; test: Competition ESI-MS binding, hTel; settings: oligonucleotides 4 μM, DNA:compound 1:1.5, overnight 4° C.
Description: as §5

[11] = system: U2OS (Human osteosarcoma cell line); test: Cytotoxicity by MTT assay; format: cell-based; settings: U2OS cells, read-out: CC50 (concentration able to kill 50% of the cells)
Description: as §1, with “Increasing concentrations of compounds (from 25 to 400 nM) were added to U2OS cells infected with wild-type HSV-1 strain F at a MOI of 1.” left out

[12] = Human alphaherpesvirus 1, HSV-1 strain F
[13] = un3 4 μM + 16 μM GSA-0932, K+ 2.5 mM
[14] = un3 4 μM + 16 μM GSA-0932, K+ 100 mM
[15] = gp054a 4 μM + 16 μM GSA-0932, K+ 2.5 mM
[16] = gp054a 4 μM + 16 μM GSA-0932, K+ 100 mM

Compound: OC1CCN(CCN2CCCn3c4ccccc4c4nc5ccccc5c2c43)CC1 [GSA-0932]
- SI (selectivity index, ratio of CC50 to IC50) (wild-type HSV-1 strain F): 112.9
- IC50 (wild-type HSV-1 strain F; [12]): 132 nM
- CC50 [1]: 14900 nM
- time of addition up to which infection was kept controlled (HSV-1): up to 6 h.p.i.
- Tm [2, 13]: 56.4 ± 1.2 °C
- ΔTm [2, 13]: 18.8 ± 0.8 °C
- Tm [2, 14]: 66.4 °C
- ΔTm [2, 14]: 1.4 °C
- Tm [3]: >90 °C
- ΔTm [3]: >7.5 °C
- ΔTm [4, 15]: 15.6 °C
- Tm, first value [4, 15]: 74.5 °C
- Tm, second value [4, 15]: > 90 °C
- Tm, first value [4, 16]: 74.7 °C
- ΔTm, first value ([4]; gp054a 4 μM + 16 μM GSA-0932, K+ 100 mM, first of two printed ΔTm): 17.4 °C
- Tm, second value [4, 16]: > 90 °C
- ΔTm, second value ([4]; gp054a 4 μM + 16 μM GSA-0932, K+ 100 mM, second of two printed ΔTm): > 7.5 °C
- intensity of the G4 stop bands [5]: increased in a concentration dependent manner
- effect on control DNA template [6]: no effect
- Relative binding affinity, un3 [7]: 50.3 ± 1.2
- Relative binding affinity, un2 [8]: 38.9 ± 1.7
- Relative binding affinity, gp054a [9]: 57.3 ± 0.4
- Relative binding affinity, Cell G4 (hTel) ([10]; competing G4s un2/hTel): 11.1 ± 0.4
- Relative binding affinity, Cell G4 (hTel) ([10]; competing G4s un3/hTel): 13.8 ± 0.2

Compound: CN(C)CCN1CCCn2c3ccccc3c3nc4ccccc4c1c32 [GSA-1502]
- SI (selectivity index, ratio of CC50 to IC50) (wild-type HSV-1 strain F): 68.70
- IC50 (wild-type HSV-1 strain F; [12]): 188 nM
- CC50 [1]: 12900 nM

Compound: CN(C)CCCN1CCCn2c3ccccc3c3nc4ccccc4c1c32 [GSA-1504]
- SI (selectivity index, ratio of CC50 to IC50) (wild-type HSV-1 strain F): 20.42
- IC50 (wild-type HSV-1 strain F; [12]): 225 nM
- CC50 [1]: 4600 nM

Compound: Cl.c1ccc2c3c4c(nc2c1)c1ccccc1n4CCCN3CCCN1CCCCCC1 [GSA-0920]
- SI (selectivity index, ratio of CC50 to IC50) (wild-type HSV-1 strain F): <9.05
- IC50 (wild-type HSV-1 strain F; [12]): > 400 nM
- CC50 [1]: 3620 nM

Compound: CN1CCN(CCCN2CCCn3c4ccccc4c4nc5ccccc5c2c43)CC1 [GSA-0903]
- SI (selectivity index, ratio of CC50 to IC50) (wild-type HSV-1 strain F): <31.15
- IC50 (wild-type HSV-1 strain F; [12]): > 200 nM
- CC50 [1]: 6230 nM

Compound: Cc1c2ccncc2c(C)c2c1[nH]c1ccc(OCCN(C)C)cc12 [GQC-05, reference compound]
- IC50 (wild-type HSV-1 strain F; HSV-1 strain F): 311 nM
- CC50 [11]: 1650 nM

Compound: OC1CCC(CCN2CCCn3c4ccccc4c4nc5ccccc5c2c43)CC1 (centres unmarked) [GSA-1512]
- SI (selectivity index, ratio of CC50 to IC50) (wild-type HSV-1 strain F): 70.78
- IC50 (wild-type HSV-1 strain F; [12]): 256 nM
- CC50 [1]: 18100 nM

Compound: c1ccc2c3c4c(nc2c1)c1ccccc1n4CCCN3CCCN1CCCCC1 [GSA-1202]
- SI (selectivity index, ratio of CC50 to IC50) (wild-type HSV-1 strain F): 21.31
- IC50 (wild-type HSV-1 strain F; [12]): 202 nM
- CC50 [1]: 4320 nM

Compound: c1ccc2c3c4c(nc2c1)c1ccccc1n4CCCN3CCCN1CCOCC1 [GSA-0825]
- SI (selectivity index, ratio of CC50 to IC50) (wild-type HSV-1 strain F): 91.64
- IC50 (wild-type HSV-1 strain F; [12]): 357 nM
- CC50 [1]: 32700 nM
